We go through four compounds from paper PMC10529594, “Strasseriolides display in vitro and in vivo activity against trypanosomal parasites and cause morphological and size defects in Trypanosoma cruzi” (PLOS Neglected Tropical Diseases, 2023).

For test [1], the system named is L. donovani MHOM/ET/67/HU3 transgenic intracellular amastigotes. Description: L. donovani intracellular amastigote assay (luciferase, THP-1 macrophages). In kind it is cell-based. The note with it: Leishmania donovani, THP-1, 72 h, read-out: EC50 L. donovani. How it is done: Leishmania donovani MHOM/ET/67/HU3 cells with the luciferase gene integrated into the parasite genome was obtained as described. Parasites were grown at 28°C in RPMI 1640-modified medium supplemented with 20% heat-inactivated fetal bovine serum (iFBS, Invitrogen) with […] of hygromycin B.
THP-1 cells were differentiated into macrophages with 20 ng/mL of PMA in a 96-well plate at 3 × 10^4 cells per well for 48 hours followed by 24 hours of culture in fresh medium. Cells were then infected with transgenic stationary L. donovani MHOM/ET/67/HU3 promastigotes expressing the luciferase gene at a multiplicity of infection (MOI) of 10. A volume of 100 μL of culture media containing the test compounds was added to each well and the plates were incubated at 37°C for 72 hours. Luminescence was measured using the Promega kit luciferase assay system.

Another test deals with T. cruzi trypomastigotes. Put plainly: T. cruzi trypomastigote viability / rate of action assay (CellTiter-Glo bioluminescence). In kind it is cell-based, Trypanosoma cruzi. The note with it: for pEC50: Trypanosoma cruzi, read-out: EC50; for pEC50 / EC90/EC50 / Hill slope: Trypomastigotes. How it is done:
Tulahuen T. cruzi trypomastigotes were recovered 6 days post infection from the supernatant of harvested infected L6 cells cultures after 3 hours at 37°C. 90 μL of parasite culture at a density of 5 × 10^6 cells in RPMI 1640 media were dispensed into 96 Nunc flat bottom assay plates containing 10 μL of each compound.
Parasite viability was assessed upon 24, 48 and 72 hour incubation at 37°C in 5% CO2 by adding 50 μL of CellTiter-Glo viability reagent to white 96-well microplates. After signal stabilization, bioluminescence was read. Compound concentrations ranged from 0.1 μM to 50 μM and final maximal DMSO percentage in the well was 0.05%. Results were normalized to […] control columns in each plate.
Background: ATP-based viability assays read luminescence as a measure of living cells.

The test system of test [2] is intracellular T. cruzi amastigotes. Description: Rate of kill, intracellular T. cruzi amastigotes (CPRG, 96-well). The class given is cell-based, Trypanosoma cruzi. The note with it: Amastigotes; for pEC50: Trypanosoma cruzi. The procedure:
For rate of kill experiments, in vitro activity against intracellular T. cruzi amastigotes was analyzed at early time points: 24, 48 and 72 hours. The standard colorimetric transgenic assay was established in a 96-well format, with serial dilutions of compounds and 0.05% as the final maximal DMSO percentage per well. In these experiments L6 host cells were included as negative controls and CPRG conversion was monitored at 585 nm using a Versamax microplate reader (Molecular devices).

In test [3] the test system is T. b. brucei 427 bloodstream forms. Description: Resazurin-based T. b. brucei assay. In kind it is cell-based. The note with it: Trypanosoma brucei; T. b. brucei 427 bloodstream forms, 72 h; read-out: EC50 T. brucei. How it is done:
Parasites strains adapted to culture in vitro were used. T. b. brucei Lister 427 bloodstream form parasites (information about the identity and genealogy of this strain is available at The Rockefeller University website) were grown in HMI-9 medium supplemented with 10% heat-inactivated fetal bovine serum (iFBS).
Cells in logarithmic phase of growth were added using a Multidrop dispenser (45 μL, 500 bloodstream T. b. brucei parasites per well) to 384-well Corning assay plates already containing 5 μL of each compound and controls, and incubated for 72 hours at 37°C. 10 μL of resazurin were added per well, and the plates were further incubated for 6 hours at 37°C. The final fluorescence was determined at 550–590 nm. Pentamidine at 40 nM and 0.0067% DMSO were used as […] growth controls, respectively.
On the technique in general: Resazurin is reduced to fluorescent resorufin, in cell work by metabolically active cells.

pEC50: −log10 of the molar value. Where a name gives a salt, the structure may show the parent alone. Read-outs that look alike come from different tables or passages of the source.

In general, pEC50 refers to the negative decadic logarithm of the EC50, by convention in mol/L. Consider `C[C@@H]1[C@H](O)[C@@H](C)/C=C/C=C/C=C/C=C/C=C/C=C/C=C/[C@H](O[C@@H]2O[C@H](C)[C@@H](O)[C@H](N)[C@@H]2O)C[C@@H]2O[C@](O)(C[C@@H](O)C[C@@H](O)[C@H](O)CC[C@@H](O)C[C@@H](O)CC(=O)O[C@H]1C)C[C@H](O)[C@H]2C(=O)O` [Amphotericin B, amphotericin B, reference compound], for which the pEC50 in test [1] is 7.28.
In general, Hill slope refers to a measure of the steepness of the concentration-response curve. For the compound `CC1CS(=O)(=O)CCN1/N=C/c1ccc([N+](=O)[O-])o1` (stereo not shown) [Nifurtimox, nifurtimox], the “RLU Average, trypomastigote viability” value is recorded as 169266 RLU in the test with T. cruzi trypomastigotes (24 h, 0.0195312 µM, untreated 165759); 166443 RLU with T. cruzi trypomastigotes (24 h, 0.0390625 µM, untreated 165759); 165831 RLU in the test on T. cruzi trypomastigotes (24 h, 0.078125 µM, untreated 165759); 160072 RLU in the test on T. cruzi trypomastigotes (24 h, 0.15625 µM, untreated 165759); 149962 RLU with T. cruzi trypomastigotes (24 h, 0.3125 µM, untreated 165759); 139314 RLU with T. cruzi trypomastigotes (24 h, 0.625 µM, untreated 165759). For the same compound, the “RLU Average, trypomastigote viability” value in the test with T. cruzi trypomastigotes (24 h, 1.25 µM, untreated 165759) is 111524 RLU; in the test with T. cruzi trypomastigotes (24 h, 2.5 µM, untreated 165759), 65827 RLU; in the test on T. cruzi trypomastigotes (24 h, 5 µM, untreated 165759), 11749 RLU; in the test on T. cruzi trypomastigotes (24 h, 10 µM, untreated 165759) it was 1446 RLU; in the test on T. cruzi trypomastigotes (48 h, 0.0195312 µM, untreated 134778), 139199 RLU; in the test with T. cruzi trypomastigotes (48 h, 0.0390625 µM, untreated 134778), 135603 RLU. Besides, the “RLU Average, trypomastigote viability” value stood at 135814 RLU in the test with T. cruzi trypomastigotes (48 h, 0.078125 µM, untreated 134778); 121189 RLU in the test with T. cruzi trypomastigotes (48 h, 0.15625 µM, untreated 134778); 101689 RLU with T. cruzi trypomastigotes (48 h, 0.3125 µM, untreated 134778); 74973 RLU in the test with T. cruzi trypomastigotes (48 h, 0.625 µM, untreated 134778); 27237 RLU in the test with T. cruzi trypomastigotes (48 h, 1.25 µM, untreated 134778); 4248 RLU in the test on T. cruzi trypomastigotes (48 h, 2.5 µM, untreated 134778). Also, the “RLU Average, trypomastigote viability” value is 1304 RLU with T. cruzi trypomastigotes (48 h, 5 µM, untreated 134778); 430 RLU in the test with T. cruzi trypomastigotes (48 h, 10 µM, untreated 134778); 78773 RLU in the test on T. cruzi trypomastigotes (72 h, 0.0195312 µM, untreated 74303); 76780 RLU in the test with T. cruzi trypomastigotes (72 h, 0.0390625 µM, untreated 74303); 75817 RLU with T. cruzi trypomastigotes (72 h, 0.078125 µM, untreated 74303); 65552 RLU in the test with T. cruzi trypomastigotes (72 h, 0.15625 µM, untreated 74303). Besides, the “RLU Average, trypomastigote viability” value is on record as 53878 RLU in the test on T. cruzi trypomastigotes (72 h, 0.3125 µM, untreated 74303); 44434 RLU in the test on T. cruzi trypomastigotes (72 h, 0.625 µM, untreated 74303); 6874 RLU in the test on T. cruzi trypomastigotes (72 h, 1.25 µM, untreated 74303); 861 RLU with T. cruzi trypomastigotes (72 h, 2.5 µM, untreated 74303); 764 RLU in the test on T. cruzi trypomastigotes (72 h, 5 µM, untreated 74303); 553 RLU in the test on T. cruzi trypomastigotes (72 h, 10 µM, untreated 74303). The negative-log EC50 (pEC50) was 5.68 in the test with T. cruzi trypomastigotes (24 h); 6.19 in the test with T. cruzi trypomastigotes (48 h); 6.22 with T. cruzi trypomastigotes (72 h); 6.52 in test [2] (24 h); 6.82 in test [2] (48 h); 6.89 in test [2] (72 h). For the same compound, the EC90/EC50 in the test with T. cruzi trypomastigotes (24 h) came to 4.04; in the test on T. cruzi trypomastigotes (48 h), 3.61; with T. cruzi trypomastigotes (48 h, listed as nifurtimox), 3.6; with T. cruzi trypomastigotes (72 h) it was 3.33; with T. cruzi trypomastigotes (72 h, listed as nifurtimox), 3.3; in test [2] (24 h) it was 4.07. Moreover, the results for the EC90/EC50 in test [2] (48 h) and in test [2] (72 h) were 4.16 and 3.03, respectively. The Hill slope is given as 1.58 in the test on T. cruzi trypomastigotes (24 h); 1.71 in the test with T. cruzi trypomastigotes (48 h); “below 2.1” in the test with T. cruzi trypomastigotes (48 h, listed as nifurtimox); 1.83 with T. cruzi trypomastigotes (72 h); “below 2.1” in the test on T. cruzi trypomastigotes (72 h, listed as nifurtimox); 1.60 in test [2] (24 h). In addition, the Hill slope is reported as 1.55 in test [2] (48 h) and 1.98 in test [2] (72 h).
Consider `N=C(N)c1ccc(OCCCCCOc2ccc(C(=N)N)cc2)cc1` [Pentamidine, pentamidine isethionate salt, reference compound], for which, in test [3], the pEC50 was 8.70.
For the compound `CC[C@@H]([C@H](C)O)n1ncn(-c2ccc(N3CCN(c4ccc(OC[C@@H]5CO[C@@](Cn6cncn6)(c6ccc(F)cc6F)C5)cc4)CC3)cc2)c1=O` [Posaconazole, posaconazole], in the test on T. cruzi trypomastigotes (2 μM, 24 and 48 hours), the “effect against extracellular forms (trypomastigotes)” value is “no effect”. Further, in test [2] (24 h), the EC90/EC50 came out at 5.16, the Hill slope stood at 1.33 and the pEC50 is 5.27. In test [2] (48 h), this compound gave an EC90/EC50 of 6.41, a Hill slope of 1.20 and a negative logarithm of the EC50 (pEC50) of 9.10. Also, in test [2] (72 h), the EC90/EC50 came out at 1.83, the Hill slope is 3.65 and the pEC50 was 9.15.
